Assay results reported in patent US7320996B2, “Indolinone protein kinase inhibitors and cyclooxygenase inhibitors for use in combination therapy for the treatment of cancer” (Sugen, Inc, priority 2001, dated 2008).
“And” between values parts separate entries of the source, which are not always exact repeats. Equal values may be shown once. Read-outs that look alike come from different tables or passages of the source.

What was measured:
c-kit = target: T1, c-kit (Homo sapiens, UniProt P10721); assay: SCF-stimulated c-kit phosphorylation in AML blasts of patients; assay type: cell-based; settings: AML blasts from peripheral blood of patients
T1 construct: was determined using MO7E cells that express this receptor; endogenous in cells; host or cells: MO7E

HUVECs = assay: VEGF-mediated HUVEC survival (PARP cleavage); assay type: cell-based, human; settings: PARP cleavage as readout for apoptosis
Description: In these experiments, cleavage of the caspase 3 substrate poly-ADP-ribosyl polymerase (PARP) was used as a readout for apoptosis.

SF763T tumors = assay: SF763T subcutaneous xenograft; assay type: in vivo, athymic mice
B16-F1 cells = assay: B16-F1 mouse melanoma lung colonization model; assay type: in vivo, athymic mice; settings: 80 mg/kg/day oral for 24 days; P <0.001
Description: In addition to supporting the sustained growth of solid primary tumors, angiogenesis is also an essential component supporting the development of disseminated disease due to metastasis from the primary tumor. […] In this model, B16-F1 cells inoculated intravenously via the tail vein of athymic mice colonize the lungs and form tumors. […] .
Briefly, the results shown in Table 8 were obtained using athymic mice that had been inoculated with B16-F1 tumor cells (5×10^5 cells/mouse) via the tail vein. […] . At the end of the treatment period, the mice were sacrificed and their lungs removed and weighed. […] .

HT29 cells = assay: cells; settings: Homo sapiens, HT-29
A549 cells = assay: cells; settings: Homo sapiens
NCI-H460 cells = assay: cells; settings: Homo sapiens
SF767T cells = assay: cells; settings: Homo sapiens
Colo205 tumors = assay: Colo205 subcutaneous xenograft
NCI-H460 tumors = assay: NCI-H460 subcutaneous xenograft

T1 sequence (P10721 26-976): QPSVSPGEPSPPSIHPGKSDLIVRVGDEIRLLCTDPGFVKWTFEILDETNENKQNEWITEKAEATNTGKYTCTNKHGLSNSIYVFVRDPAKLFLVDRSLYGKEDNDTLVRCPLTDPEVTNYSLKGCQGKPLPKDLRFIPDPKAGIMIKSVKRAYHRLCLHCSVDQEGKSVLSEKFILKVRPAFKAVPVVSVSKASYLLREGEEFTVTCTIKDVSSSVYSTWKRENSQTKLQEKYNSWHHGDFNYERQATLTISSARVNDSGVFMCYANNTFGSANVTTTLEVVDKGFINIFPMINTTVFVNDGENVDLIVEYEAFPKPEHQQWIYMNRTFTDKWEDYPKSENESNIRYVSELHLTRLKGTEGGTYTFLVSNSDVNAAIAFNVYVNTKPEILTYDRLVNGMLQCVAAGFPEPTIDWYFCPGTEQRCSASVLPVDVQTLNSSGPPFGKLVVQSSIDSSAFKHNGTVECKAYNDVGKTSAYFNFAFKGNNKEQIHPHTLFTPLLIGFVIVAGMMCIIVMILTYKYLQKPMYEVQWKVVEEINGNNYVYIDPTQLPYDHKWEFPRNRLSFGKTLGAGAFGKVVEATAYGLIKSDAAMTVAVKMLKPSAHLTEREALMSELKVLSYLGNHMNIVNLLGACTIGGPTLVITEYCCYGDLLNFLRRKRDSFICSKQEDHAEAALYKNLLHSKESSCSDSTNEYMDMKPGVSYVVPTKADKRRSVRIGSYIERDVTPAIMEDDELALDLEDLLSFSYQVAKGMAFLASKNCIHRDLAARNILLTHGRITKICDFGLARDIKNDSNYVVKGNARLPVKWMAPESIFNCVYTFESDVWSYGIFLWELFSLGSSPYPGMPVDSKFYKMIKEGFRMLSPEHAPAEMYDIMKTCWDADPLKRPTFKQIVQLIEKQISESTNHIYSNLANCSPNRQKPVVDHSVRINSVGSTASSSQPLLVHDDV

SMILES: CCN(CC)CCNC(=O)c1c(C)[nH]c(/C=C2\C(=O)Nc3ccc(F)cc32)c1C [Compound 80]
- SCF-stimulated c-kit phosphorylation (c-kit): inhibited
- effect on VEGF-mediated HUVEC survival (HUVECs): inhibited VEGF-mediated HUVEC survival in a dose-dependent manner
- tumor response to treatment (SF763T tumors; 80 mg/kg/day oral): arrested or greatly slowed
- % Inhibition (SF763T tumors; initial tumor volume 550 mm^3, 80 mg/kg once daily oral, day 30, P 0.001): 53 (30) %
- PDGFRβ tyrosine phosphorylation in established tumors (SF763T tumors; oral administration): strongly inhibited
- levels of phosphorylated (activated) phospholipase C gamma (PLC-γ) in tumors (SF763T tumors; oral administration): reduced
- % Inhibition (lung weight) (B16-F1 cells): 50%
- tumor response to treatment (A431 tumors; 80 mg/kg/day oral): regressed
- efficacy against established A431 tumors versus 80 mg/kg/day dose (A431 tumors; 160 mg/kg/day, preliminary experiments): not more efficacious
- complete regression of the tumors (A431 tumors; initial 100 mm^3, 80 mg/kg/day for 21 days): six of the eight animals
- % Inhibition of tumor growth (A431 tumors; initial tumor volume 100 mm^3, 10 mg/kg/day oral, day 40, P 0.059): 61 (40) %
- % Inhibition of tumor growth (A431 tumors; initial tumor volume 100 mm^3, 40 mg/kg/day oral, day 40, P 0.015): 75 (40) %
- % Inhibition of tumor growth (A431 tumors; initial tumor volume 100 mm^3, 80 mg/kg/day oral, day 40, P 0.002): 93 (40) %
- % Inhibition of tumor growth (A431 tumors; initial tumor volume 400 mm^3, 20 mg/kg/day oral, day 36, P 0.130): 51 (36) %
- % Inhibition of tumor growth (A431 tumors; initial tumor volume 400 mm^3, 40 mg/kg/day oral, day 36, P 0.003): 74% and 74 (36) %
- % Inhibition of tumor growth (A431 tumors; initial tumor volume 400 mm^3, 80 mg/kg/day oral, day 36, P 0.001): 84% and 84 (36) %
- tumor regrowth after end of treatment (A431 tumors; the six animals with complete regression): did not regrow during a 110-day observation period
- response of regrown tumors to a second round of treatment (A431 tumors; two animals with tumors regrown to 2000-3000 mm^3): regressed
- IC50 (HT29 cells): 10 µM
- IC50 (A549 cells): 9.5 µM
- IC50 (NCI-H460 cells): 8.9 µM
- IC50 (SF767T cells): 7.9 µM
- % Inhibition (Colo205 tumors; 40 mg/kg daily oral, tumors 400 mm^3 at start, P 0.028): 84%
- % Inhibition (Colo205 tumors; 40 mg/kg twice weekly oral, tumors 400 mm^3 at start, NS): 36%
- % Inhibition (Colo205 tumors; 80 mg/kg daily oral, tumors 400 mm^3 at start, P 0.039): 91%
- % Inhibition (Colo205 tumors; 80 mg/kg once weekly oral, tumors 400 mm^3 at start, NS): 0%
- % Inhibition (Colo205 tumors; 80 mg/kg twice weekly oral, tumors 400 mm^3 at start, NS): 19%
- tumor response to treatment (Colo205 tumors; 80 mg/kg/day oral): regressed
- % Inhibition (Colo205 tumors; 160 mg/kg once weekly oral, tumors 400 mm^3 at start, NS): 17%
- % Inhibition (Colo205 tumors; 160 mg/kg twice weekly oral, tumors 400 mm^3 at start, P 0.085): 52%
- % Inhibition (Colo205 tumors; initial tumor volume 370 mm^3, 80 mg/kg once daily oral, day 54, P 0.028): 77 (54) %
- tumor response to treatment (NCI-H460 tumors; 80 mg/kg/day oral): arrested or greatly slowed
- % Inhibition (NCI-H460 tumors; initial tumor volume 300 mm^3, 80 mg/kg once daily oral, day 54, P 0.003): 61 (54) %
